Source: patent publication US8802597B2, “Herbicidal pyrimidines” (E I du Pont de Nemours and Company, priority 2003, dated 2014)

What was measured:
Test in all cases: Test C pre/postemergence
Format in all cases: in vivo
[1] = tested on: Surinam grass (Brachiaria decumbens); settings: for Surinam Grass plant response rating: scale 0 to 100 (0 no effect, 100 complete control)
How it was run: (§1)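 Seeds sown and sprayed preemergence with test compound in non-phytotoxic solvent containing surfactant; postemergence sprays, same formulation, went onto plants 2 to 18 cm tall (1- to 4-leaf stage). Plants held in greenhouse 12 to 14 days, then visually rated against untreated controls on a 0–100 scale (0 no effect, 100 complete control).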

[2] = tested on: cocklebur (Xanthium strumarium); settings: for Cocklebur plant response rating: scale 0 to 100 (0 no effect, 100 complete control)
How it was run: as §1

[3] = tested on: common (oilseed) sunflower (Helianthus annuus); settings: Preemergence
How it was run: as §1

[4] = tested on: common ragweed (Ambrosia elatior); settings: for Ragweed plant response rating: scale 0 to 100 (0 no effect, 100 complete control)
How it was run: as §1

corn (Zea mays) = settings: for Corn plant response rating: scale 0 to 100 (0 no effect, 100 complete control)
How it was run: as §1

[5] = tested on: crabgrass (Digitaria sanguinalis); settings: for Crabgrass plant response rating: scale 0 to 100 (0 no effect, 100 complete control)
How it was run: as §1

[6] = tested on: goosegrass (Eleusine indica); settings: for Goosegrass plant response rating: scale 0 to 100 (0 no effect, 100 complete control)
How it was run: as §1

kochia (Kochia scoparia) = settings: for Kochia plant response rating: scale 0 to 100 (0 no effect, 100 complete control)
How it was run: as §1

[7] = tested on: lambsquarters (Chenopodium album); settings: for Lambsquarters plant response rating: scale 0 to 100 (0 no effect, 100 complete control)
How it was run: as §1

[8] = tested on: pigweed (Amaranthus retroflexus); settings: for Pigweed plant response rating: scale 0 to 100 (0 no effect, 100 complete control)
How it was run: as §1

[9] = tested on: velvetleaf (Abutilon theophrasti); settings: for Velvetleaf plant response rating: scale 0 to 100 (0 no effect, 100 complete control)
How it was run: as §1

[10] = tested on: yellow nutsedge (Cyperus esculentus); settings: for Nutsedge, Yellow plant response rating: scale 0 to 100 (0 no effect, 100 complete control)
How it was run: as §1

[11] = Postemergence, 250 g ai/ha, scale 0 to 100
[12] = Postemergence, 500 g ai/ha, scale 0 to 100
[13] = Preemergence, 125 g ai/ha, scale 0 to 100
[14] = Preemergence, 250 g ai/ha, scale 0 to 100
[15] = Preemergence, 500 g ai/ha, scale 0 to 100
[16] = 62 g ai/ha, scale 0 to 100, 0 no effect, 100 complete control
[17] = Preemergence, 62 g ai/ha, scale 0 to 100, 0 no effect, 100 complete control
[18] = Preemergence, 31 g ai/ha, scale 0 to 100, 0 no effect, 100 complete control

COC(=O)CNc1nc(C2CC2)nc(C(=O)OC)c1Br [Compound 10]
75: Plant response rating, Cocklebur [2, 12]
50: Plant response rating, Lambsquarters [7, 13]
60: Plant response rating, Cocklebur [2, 11] | Lambsquarters plant response rating ([7]; Postemergence, 62 g ai/ha) | Plant response rating, Velvetleaf [9, 15]
85: Plant response rating, Ragweed [4, 15] | Plant response rating, Pigweed [8, 15]
15: Cocklebur plant response rating ([2]; Postemergence, 125 g ai/ha)
95: Plant response rating, Kochia (kochia (Kochia scoparia); [11]) | Plant response rating, Lambsquarters [7, 15] | Plant response rating, Pigweed [8, 11] | Plant response rating, Pigweed [8, 12]
45: Ragweed plant response rating ([4]; Postemergence, 62 g ai/ha) | Plant response rating, Kochia (kochia (Kochia scoparia); [14])
80: Plant response rating, Ragweed [4, 11] | Kochia plant response rating (kochia (Kochia scoparia); Postemergence, 62 g ai/ha) | Lambsquarters plant response rating ([7]; Postemergence, 125 g ai/ha) | Pigweed plant response rating ([8]; Postemergence, 125 g ai/ha) | Plant response rating, Velvetleaf [9, 11]
65: Ragweed plant response rating ([4]; Postemergence, 125 g ai/ha) | Plant response rating, Kochia (kochia (Kochia scoparia); [15]) | Plant response rating, Lambsquarters [7, 14] | Pigweed plant response rating ([8]; Postemergence, 62 g ai/ha) | Velvetleaf plant response rating ([9]; Postemergence, 62 g ai/ha)
0: Surinam Grass plant response rating ([1]; Postemergence, 62 g ai/ha) | Surinam Grass plant response rating ([1]; Postemergence, 125 g ai/ha) | Plant response rating, Surinam Grass [1, 11] | Plant response rating, Surinam Grass [1, 12] | Plant response rating, Surinam Grass [1, 13] | Plant response rating, Surinam Grass [1, 14] | Plant response rating, Surinam Grass [1, 15] | Cocklebur plant response rating ([2]; Postemergence, 62 g ai/ha) | Plant response rating, Cocklebur [2, 13] | Plant response rating, Cocklebur [2, 14] | Plant response rating, Sunflower [3, 16] | Plant response rating, Sunflower ([3]; 125 g ai/ha, scale 0 to 100) | Plant response rating, Sunflower ([3]; 250 g ai/ha, scale 0 to 100) | Plant response rating, Sunflower ([3]; 500 g ai/ha, scale 0 to 100) | Plant response rating, Ragweed [4, 17] | Plant response rating, Ragweed [4, 13] | Corn plant response rating (corn (Zea mays); Postemergence, 62 g ai/ha) | Corn plant response rating (corn (Zea mays); Postemergence, 125 g ai/ha) | Plant response rating, Corn (corn (Zea mays); [11]) | Plant response rating, Corn (corn (Zea mays); [12]) | Plant response rating, Corn (corn (Zea mays); [17]) | Plant response rating, Corn (corn (Zea mays); [13]) | Plant response rating, Corn (corn (Zea mays); [14]) | Plant response rating, Corn (corn (Zea mays); [15]) | Crabgrass plant response rating ([5]; Postemergence, 62 g ai/ha) | Crabgrass plant response rating ([5]; Postemergence, 125 g ai/ha) | Plant response rating, Crabgrass [5, 11] | Plant response rating, Crabgrass [5, 12] | Plant response rating, Crabgrass [5, 17] | Plant response rating, Crabgrass [5, 13] | Plant response rating, Crabgrass [5, 14] | Plant response rating, Crabgrass [5, 15] | Goosegrass plant response rating ([6]; Postemergence, 62 g ai/ha) | Goosegrass plant response rating ([6]; Postemergence, 125 g ai/ha) | Plant response rating, Goosegrass [6, 11] | Plant response rating, Goosegrass [6, 12] | Plant response rating, Goosegrass [6, 17] | Plant response rating, Goosegrass [6, 13] | Plant response rating, Goosegrass [6, 14] | Plant response rating, Goosegrass [6, 15] | Plant response rating, Kochia (kochia (Kochia scoparia); [17]) | Plant response rating, Kochia (kochia (Kochia scoparia); [13]) | Plant response rating, Lambsquarters [7, 17] | Plant response rating, Velvetleaf [9, 17] | Plant response rating, Velvetleaf [9, 13] | Plant response rating, Velvetleaf [9, 14] | Nutsedge, Yellow plant response rating ([10]; Postemergence, 62 g ai/ha) | Nutsedge, Yellow plant response rating ([10]; Postemergence, 125 g ai/ha) | Plant response rating, Nutsedge, Yellow [10, 11] | Plant response rating, Nutsedge, Yellow [10, 12] | Plant response rating, Nutsedge, Yellow [10, 17] | Plant response rating, Nutsedge, Yellow [10, 13]
90: Plant response rating, Ragweed [4, 12] | Kochia plant response rating (kochia (Kochia scoparia); Postemergence, 125 g ai/ha) | Plant response rating, Lambsquarters [7, 11] | Plant response rating, Velvetleaf [9, 12]
20: Plant response rating, Pigweed [8, 17]
100: Plant response rating, Cocklebur [2, 15] | Plant response rating, Kochia (kochia (Kochia scoparia); [12]) | Plant response rating, Lambsquarters [7, 12]
55: Plant response rating, Ragweed [4, 14] | Plant response rating, Pigweed [8, 13]
70: Plant response rating, Pigweed [8, 14] | Velvetleaf plant response rating ([9]; Postemergence, 125 g ai/ha)

CCOC(=O)Cc1nc(C2CC2)nc(N=CN(C)C)c1Br [Compound 33]
100: Plant response rating, Crabgrass [5, 14] | Plant response rating, Crabgrass [5, 15]
20: Plant response rating, Ragweed [4, 13] | Plant response rating, Crabgrass [5, 13] | Plant response rating, Velvetleaf [9, 13]
10: Plant response rating, Surinam Grass [1, 15]
30: Plant response rating, Corn (corn (Zea mays); [14])
50: Plant response rating, Kochia (kochia (Kochia scoparia); [14]) | Plant response rating, Kochia (kochia (Kochia scoparia); [15])
0: Plant response rating, Surinam Grass [1, 17] | Plant response rating, Surinam Grass [1, 13] | Plant response rating, Surinam Grass [1, 14] | Plant response rating, Cocklebur [2, 17] | Plant response rating, Cocklebur [2, 13] | Plant response rating, Sunflower [3, 16] | Plant response rating, Ragweed [4, 17] | Plant response rating, Corn (corn (Zea mays); [17]) | Plant response rating, Corn (corn (Zea mays); [13]) | Plant response rating, Crabgrass [5, 17] | Plant response rating, Goosegrass [6, 17] | Plant response rating, Goosegrass [6, 13] | Plant response rating, Goosegrass [6, 14] | Plant response rating, Goosegrass [6, 15] | Plant response rating, Velvetleaf [9, 17] | Plant response rating, Nutsedge, Yellow [10, 17] | Plant response rating, Nutsedge, Yellow [10, 13] | Plant response rating, Nutsedge, Yellow [10, 14] | Plant response rating, Nutsedge, Yellow [10, 15]
95: Plant response rating, Cocklebur [2, 15]
85: Plant response rating, Lambsquarters [7, 14] | Plant response rating, Pigweed [8, 17] | Plant response rating, Velvetleaf [9, 15]
90: Plant response rating, Cocklebur [2, 14] | Plant response rating, Sunflower ([3]; 500 g ai/ha, scale 0 to 100) | Plant response rating, Ragweed [4, 15] | Plant response rating, Pigweed [8, 13] | Plant response rating, Pigweed [8, 14] | Plant response rating, Pigweed [8, 15]
60: Plant response rating, Velvetleaf [9, 14]
80: Plant response rating, Sunflower ([3]; 250 g ai/ha, scale 0 to 100)
40: Plant response rating, Corn (corn (Zea mays); [15])
70: Plant response rating, Sunflower ([3]; 125 g ai/ha, scale 0 to 100) | Plant response rating, Ragweed [4, 14]

CCOC(=O)Cc1nc(C2CC2)nc(N)c1Br [Compound 12]
90: Plant response rating, Cocklebur [2, 14]
30: Plant response rating, Corn (corn (Zea mays); [17])
20: Plant response rating, Ragweed [4, 13]
5: Plant response rating, Velvetleaf [9, 17]
50: Plant response rating, Cocklebur [2, 18] | Plant response rating, Cocklebur [2, 17] | Plant response rating, Kochia (kochia (Kochia scoparia); [17]) | Plant response rating, Kochia (kochia (Kochia scoparia); [13]) | Plant response rating, Pigweed [8, 17] | Plant response rating, Pigweed [8, 13] | Plant response rating, Velvetleaf [9, 13]
60: Plant response rating, Corn (corn (Zea mays); [13])
70: Plant response rating, Lambsquarters [7, 14] | Plant response rating, Velvetleaf [9, 14]
10: Plant response rating, Ragweed [4, 17] | Plant response rating, Lambsquarters [7, 17] | Plant response rating, Pigweed [8, 18]
40: Plant response rating, Lambsquarters [7, 13]
0: Plant response rating, Surinam Grass [1, 18] | Plant response rating, Surinam Grass [1, 13] | Plant response rating, Surinam Grass [1, 14] | Plant response rating, Sunflower ([3]; 31 g ai/ha, scale 0 to 100, 0 no effect, 100 complete control) | Plant response rating, Sunflower [3, 16] | Plant response rating, Sunflower ([3]; 125 g ai/ha, scale 0 to 100) | Plant response rating, Corn (corn (Zea mays); [18]) | Plant response rating, Crabgrass [5, 18] | Plant response rating, Crabgrass [5, 17] | Plant response rating, Crabgrass [5, 13] | Plant response rating, Crabgrass [5, 14] | Plant response rating, Goosegrass [6, 18] | Plant response rating, Goosegrass [6, 17] | Plant response rating, Goosegrass [6, 13] | Plant response rating, Goosegrass [6, 14] | Plant response rating, Kochia (kochia (Kochia scoparia); [18]) | Plant response rating, Lambsquarters [7, 18] | Plant response rating, Velvetleaf [9, 18] | Plant response rating, Nutsedge, Yellow [10, 18] | Plant response rating, Nutsedge, Yellow [10, 17] | Plant response rating, Nutsedge, Yellow [10, 13] | Plant response rating, Nutsedge, Yellow [10, 14]
85: Plant response rating, Cocklebur [2, 13] | Plant response rating, Sunflower ([3]; 250 g ai/ha, scale 0 to 100) | Plant response rating, Ragweed [4, 14] | Plant response rating, Kochia (kochia (Kochia scoparia); [14]) | Plant response rating, Pigweed [8, 14]
